Structures can show the parent of a compound that is named as a salt. Where two headings read alike, the source gives them in different places.
Columns and labels:
[1] = target: NaV1.6 (Homo sapiens (Human), UniProt Q9UQD0); assay: Sodium Influx Assay (Flux), NaV1.6; assay type: cell-based; settings: Trex HEK293 cells, ANG2 dye, inactivated state;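 note: Tetracycline-induced cells, compounds applied for one hour at room temperature with modulators holding channels open, IC50 from percent inhibition of sodium influx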
[2] = target: NaV1.1 (Homo sapiens (Human), UniProt P35498); assay: Sodium Influx Assay (Flux), NaV1.1; assay type: cell-based; settings: Trex HEK293 cells, ANG2 dye, inactivated state;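 note: channels co-expressed with human β1 subunit and held open by modulators, cells exposed to compounds for one hour at room temperature, IC50 from percent inhibition of influx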
[3] = target: NaV1.5 (Homo sapiens (Human), UniProt Q14524); assay: Sodium Influx Assay (Flux), NaV1.5
[4] = read-out: Flux NaV1.5 IC50, Trex HEK293 cells, ANG2 dye, inactivated state

NaV1.5, sequence (Q14524 other isoform, or with tags, fused parts or gaps): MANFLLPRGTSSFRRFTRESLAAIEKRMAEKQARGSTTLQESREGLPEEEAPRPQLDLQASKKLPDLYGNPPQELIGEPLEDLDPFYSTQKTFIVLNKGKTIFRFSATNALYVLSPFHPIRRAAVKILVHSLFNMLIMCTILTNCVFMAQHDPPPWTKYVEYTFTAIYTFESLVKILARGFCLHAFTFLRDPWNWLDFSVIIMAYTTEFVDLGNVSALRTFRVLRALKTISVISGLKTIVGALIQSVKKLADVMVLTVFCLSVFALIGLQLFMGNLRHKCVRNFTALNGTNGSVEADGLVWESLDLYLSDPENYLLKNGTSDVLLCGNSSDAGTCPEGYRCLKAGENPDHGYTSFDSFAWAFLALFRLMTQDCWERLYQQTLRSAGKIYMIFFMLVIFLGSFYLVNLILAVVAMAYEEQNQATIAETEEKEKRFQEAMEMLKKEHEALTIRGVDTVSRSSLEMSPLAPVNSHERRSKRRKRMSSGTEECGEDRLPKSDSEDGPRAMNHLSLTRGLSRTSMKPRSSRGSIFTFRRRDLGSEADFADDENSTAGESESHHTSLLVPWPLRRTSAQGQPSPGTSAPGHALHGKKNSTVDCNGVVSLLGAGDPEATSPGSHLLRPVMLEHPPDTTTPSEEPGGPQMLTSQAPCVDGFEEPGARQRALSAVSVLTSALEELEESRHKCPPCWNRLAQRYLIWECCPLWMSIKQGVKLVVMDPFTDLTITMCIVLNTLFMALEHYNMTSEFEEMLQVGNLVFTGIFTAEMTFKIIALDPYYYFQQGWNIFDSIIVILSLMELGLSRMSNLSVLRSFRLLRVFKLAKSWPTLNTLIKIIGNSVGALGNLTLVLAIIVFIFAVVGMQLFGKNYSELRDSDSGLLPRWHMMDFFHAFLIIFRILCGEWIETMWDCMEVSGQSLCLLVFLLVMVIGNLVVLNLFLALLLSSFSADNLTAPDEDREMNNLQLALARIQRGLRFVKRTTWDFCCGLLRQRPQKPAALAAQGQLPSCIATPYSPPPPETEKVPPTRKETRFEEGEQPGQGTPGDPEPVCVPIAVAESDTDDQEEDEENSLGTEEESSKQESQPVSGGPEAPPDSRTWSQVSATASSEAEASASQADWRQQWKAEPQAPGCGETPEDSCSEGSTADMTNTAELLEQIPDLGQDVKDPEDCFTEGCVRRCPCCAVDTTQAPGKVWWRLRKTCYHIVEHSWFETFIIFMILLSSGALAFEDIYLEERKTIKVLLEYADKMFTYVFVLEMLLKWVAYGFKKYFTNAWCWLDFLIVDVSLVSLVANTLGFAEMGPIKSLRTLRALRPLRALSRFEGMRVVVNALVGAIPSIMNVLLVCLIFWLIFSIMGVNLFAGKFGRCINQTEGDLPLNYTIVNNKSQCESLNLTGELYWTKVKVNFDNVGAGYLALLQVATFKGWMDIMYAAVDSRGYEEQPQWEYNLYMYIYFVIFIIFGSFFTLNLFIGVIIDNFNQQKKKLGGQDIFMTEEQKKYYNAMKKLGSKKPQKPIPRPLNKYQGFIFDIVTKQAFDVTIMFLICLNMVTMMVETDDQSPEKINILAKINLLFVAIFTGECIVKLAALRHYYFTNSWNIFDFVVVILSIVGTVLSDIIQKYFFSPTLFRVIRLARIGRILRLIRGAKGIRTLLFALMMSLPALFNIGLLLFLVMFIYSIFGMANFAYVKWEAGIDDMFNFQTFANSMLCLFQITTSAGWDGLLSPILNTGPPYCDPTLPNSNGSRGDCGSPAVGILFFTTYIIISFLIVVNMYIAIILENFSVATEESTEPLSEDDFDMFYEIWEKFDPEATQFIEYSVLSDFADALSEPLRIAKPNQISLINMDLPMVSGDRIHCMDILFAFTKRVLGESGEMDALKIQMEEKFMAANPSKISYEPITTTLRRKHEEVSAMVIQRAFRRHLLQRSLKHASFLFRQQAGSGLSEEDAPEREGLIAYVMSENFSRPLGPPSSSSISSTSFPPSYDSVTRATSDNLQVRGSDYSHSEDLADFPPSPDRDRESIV

## C[C@H](Nc1ccc(S(=O)(=O)Nc2cscn2)c(F)c1Cl)c1c(F)cccc1Cl [Example 148, (S)-3-chloro-4-((1-(2-chloro-6-fluorophenyl)ethyl)amino)-2-fluoro-N-(thiazol-4-yl)benzenesulfonamide]
[1]
  IC50: 1.25 µM
[2]
  IC50: 2.95 µM
[3]; [4]
  IC50: 4.84 µM

## C[C@H](Oc1cc(F)c(S(=O)(=O)Nc2nccs2)cc1Cl)c1cc(Cl)ccc1F [Example 95, (S)-5-chloro-4-(1-(5-chloro-2-fluorophenyl)ethoxy)-2-fluoro-N-(thiazol-2-yl)benzenesulfonamide]
[1]
  IC50: 0.761 µM
[2]
  IC50: 8.11 µM
[3]; [4]
  IC50: 30 µM

## C[C@H](Nc1cc(F)c(S(=O)(=O)Nc2cscn2)cc1Cl)c1cccc(CN(C)C)c1 [Example 253, (S)-5-chloro-4-((1-(3-((dimethylamino)methyl)phenyl)ethyl)amino)-2-fluoro-N-(thiazol-4-yl)benzenesulfonamide formate]
[1]
  IC50: 2.1 µM
[2]
  IC50: 20 µM
[3]; [4]
  IC50: 13.1 µM

## C[C@@H](Oc1cc(F)c(S(=O)(=O)Nc2nccs2)cc1Cl)c1ccccc1F [Example 121, (R)-5-chloro-2-fluoro-4-(1-(2-fluorophenyl)ethoxy)-N-(thiazol-2-yl)benzenesulfonamide]
[1]
  IC50: 2.32 µM
[2]
  IC50: 3.38 µM
[3]; [4]
  IC50: 2.15 µM

## O=S(=O)(Nc1ncns1)c1ccc(N[C@H]2CCc3ccccc32)c(Cl)c1 [Example 36, (S)-3-chloro-4-((2,3-dihydro-1H-inden-1-yl)amino)-N-(1,2,4-thiadiazol-5-yl)benzenesulfonamide]
[1]
  IC50: 1.4 µM
[2]
  IC50: 1.34 µM
[3]; [4]
  IC50: 5.12 µM

## O=S(=O)(Nc1cnsc1)c1c(F)cc(NCc2c(F)cccc2CN2CCC2)cc1F [Example 318, 4-((2-(azetidin-1-ylmethyl)-6-fluorobenzyl)amino)-2,6-difluoro-N-(isothiazol-4-yl)benzenesulfonamide]
[1]
  IC50: 6.03 µM
[2]
  IC50: 20.4 µM
[3]; [4]
  IC50: 17.3 µM

## O=S(=O)(Nc1cscn1)c1cc(Cl)c(NCc2cc(F)c(F)cc2CN2CCC2)cc1F [Example 193, 4-((2-(azetidin-1-ylmethyl)-4,5-difluorobenzyl)amino)-5-chloro-2-fluoro-N-(thiazol-4-yl)benzenesulfonamide formate]
[1]
  IC50: 7.49 µM
[2]
  IC50: 8.85 µM
[3]; [4]
  IC50: 26.7 µM

## CC[C@H](Nc1cc(F)c(S(=O)(=O)Nc2nccs2)cc1C)c1ccccc1 [Example 126, (S)-2-fluoro-5-methyl-4-((1-phenylpropyl)amino)-N-(thiazol-2-yl)benzenesulfonamide]
[1]
  IC50: 0.114 µM
[2]
  IC50: 0.147 µM
[3]
  IC50: 11.4 µM

## O=S(=O)(Nc1nccs1)c1cc(Cl)c(NC2CCCc3ccncc32)cc1F (stereo not drawn) [Example 93, 5-chloro-2-fluoro-4-((5,6,7,8-tetrahydroisoquinolin-8-yl)amino)-N-(thiazol-2-yl)benzenesulfonamide 2,2,2-trifluoroacetate]
[1]
  IC50: 0.27 µM
[2]
  IC50: 0.314 µM
[3]; [4]
  IC50: 8.47 µM

## O=S(=O)(Nc1cscn1)c1c(F)cc(NCc2c(F)cccc2CN2CC3(CCC3)C2)cc1F [Example 252, 4-((2-((2-azaspiro[3.3]heptan-2-yl)methyl)-6-fluorobenzyl)amino)-2,6-difluoro-N-(thiazol-4-yl)benzenesulfonamide formate]
[1]
  IC50: 0.036 µM
[2]
  IC50: 9.96 µM
[3]; [4]
  IC50: 12.6 µM

## C[C@H](Nc1cc(F)c(S(=O)(=O)Nc2ccncn2)c(F)c1)c1cc(F)ccc1F [Example 208, (S)-4-((1-(2,5-difluorophenyl)ethyl)amino)-2,6-difluoro-N-(pyrimidin-4-yl)benzenesulfonamide 2,2,2-trifluoroacetate]
[1]
  IC50: 0.593 µM
[2]
  IC50: 9.89 µM
[3]; [4]
  IC50: 30 µM

## O=S(=O)(Nc1cscn1)c1cc(Cl)c(N[C@@H]2C[C@H](N3CCC3)c3ccccc32)cc1F [Example 321, 4-(((1R,3S)-3-(azetidin-1-yl)-2,3-dihydro-1H-inden-1-yl)amino)-5-chloro-2-fluoro-N-(thiazol-4-yl)benzenesulfonamide formate]
[1]
  IC50: 0.091 µM
[2]
  IC50: 4.77 µM
[3]; [4]
  IC50: 28.1 µM
